{"source": "patent US20250270648A1", "about": "“MOLECULAR SIGNATURE FOR ASSESSING THE RESPONSIVENESS OF CANCER TO MITOCHONDRIA-TARGETED ANTIOXIDANTS” (UNIVERSITÉ CATHOLIQUE DE LOUVAIN, priority 2021, published 2025)", "key": {"[1]": {"test_system": "MDA-MB-231 human breast cancer cells", "assay": "Mitochondrial superoxide, EPR with MitoTEMPO-H ±PEG-SOD2", "type": "cell-based", "details": "MitoQ 100 nM, 48 h", "procedure": "Mitochondrial superoxide levels were determined using electron paramagnetic resonance (EPR) with MitoTEMPO-H as a specific mitochondrial superoxide probe ±PEG-SOD2 to specifically assign signals to mitochondrial superoxide. EPR measurements were performed using a Bruker EMX-Plus spectrometer, operating in X-band (9.85 GHz) and equipped with a PremiumX ultra low noise microwave bridge and a SHQ high sensitivity resonator. Typical settings were: microwave power: 20 mW; attenuation: 10 dB; modulation frequency: 100 kHz; modulation amplitude: 0.1 mT; time constant: 20.48 ms; conversion time: 22.58 ms; sweep width: 0.15 mT. Briefly, MDA-MB-231, SkBr3, MCF10A or MDA-MB-436 cells were treated ±MitoQ for 48 h, harvested and resuspended in PBS at 2×10^6 cells/mL. The experimental mixture was prepared with cell suspension, 1 mM DTPA and 150 μM MitoTEMPO-H. It was then aspirated into a gas-permeable polytetrafluoroethylene (PTFE) tubing that was placed in a quartz tube opened at both ends. The tube was directly inserted inside the EPR cavity that was heated at 310° K with air during all experiments. […] Net superoxide production was calculated by subtracting the double integration values of the […] with PEG-SOD2 to the control value at timepoint 15 min."}, "MDA-MB-231 cells": {"test_system": "MDA-MB-231 cells", "assay": "Direct cell counting, MitoQ alone", "type": "cell-based, human", "procedure": "(§1) To probe the effects of MitoQ alone on cell numbers, MDA-MB-231, SkBr3, MDA-MB-436 or MCF10A (2,500-10,000 cells/well) cells were plated in 96-well plates and treated with increasing concentrations of MitoQ. At each time point, the number of cells per well was measured using a SpectraMax i3 spectrophotometer equipped with a MiniMax™ imaging cytometer."}, "MDA-MB-436 cells": {"test_system": "MDA-MB-436 cells", "assay": "Direct cell counting, MitoQ alone", "type": "cell-based, human", "details": "increasing doses of MitoQ (0 to 500 nM)", "procedure": "as §1"}, "SkBr3 cells": {"test_system": "SkBr3 cells", "assay": "Direct cell counting, MitoQ alone", "type": "cell-based, human", "procedure": "as §1"}, "[2]": {"test_system": "murine 4T1 breast cancer cells", "assay": "Cell viability, crystal violet", "type": "cell-based, mouse", "details": "increasing doses of cisplatin ±100 nM MitoQ, 48 h", "procedure": "[…] The solution was carefully removed and plates were washed twice with water. After drying protected by light, cells were resuspended in 50 μl DMSO and the plates were read with a Victor X4 plate reader (Perkin®)."}}, "data": [{"smiles": "COC1=C(OC)C(=O)C(CCCCCCCCCC[P+](c2ccccc2)(c2ccccc2)c2ccccc2)=C(C)C1=O", "note": "[MitoQ]", "values": [{"measurement": "mitochondrial superoxide and mitochondrial H2O2 production", "setting": "[1]", "value": "lower"}, {"measurement": "MitoQ dose starting from which cell number is reduced", "setting": "MDA-MB-231 cells; doses 0 to 500 nM", "value": "≥ 500", "unit": "nM"}, {"measurement": "cell numbers, dose dependence", "setting": "MDA-MB-231 cells; increasing doses of MitoQ", "value": "Dose-dependent decreases"}, {"measurement": "cell numbers", "setting": "MDA-MB-436 cells", "value": "dose-dependently reduced"}, {"measurement": "MitoQ dose from which cell numbers started to decrease", "setting": "SkBr3 cells; doses 0 to 500 nM", "value": "≥ 250", "unit": "nM"}, {"measurement": "cell numbers, dose dependence", "setting": "SkBr3 cells; increasing doses of MitoQ", "value": "Dose-dependent decreases"}, {"measurement": "cancer cell killing activity, cisplatin combined with MitoQ", "setting": "[2]", "value": "did not interfere"}]}]}
